Laboratory results from PubChem BioAssay AID504473 (NMMLSC, 2011).
Activity calls are given as the source filed them.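 How the source made its calls: active means GFP ratio to DMSO above 1.5 or below 0.66; inactive means the rest.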

What was measured:
Test in all cases: TOR pathway GFP reporter clone modulation in yeast – S. cerevisiae, GFP-tagged clone panel, flow cytometry (AID 504473);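 further: median GFP fluorescence of the cells measured by high-throughput flow cytometry; test concentration not given here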
[1] = molecular target: General amino acid permease AGP1 (Saccharomyces cerevisiae S288c) (UniProt P25376); settings: S. cerevisiae GFP-tagged strains, 3 h, YCL025C
YAL060W = settings: S. cerevisiae GFP-tagged strains, 3 h
YAL061W = settings: S. cerevisiae GFP-tagged strains, 3 h
YBL087C = settings: S. cerevisiae GFP-tagged strains, 3 h
YBR072W = settings: S. cerevisiae GFP-tagged strains, 3 h
YBR139W = settings: S. cerevisiae GFP-tagged strains, 3 h
YBR208C = settings: S. cerevisiae GFP-tagged strains, 3 h
YBR248C = settings: S. cerevisiae GFP-tagged strains, 3 h
YCL064C = settings: S. cerevisiae GFP-tagged strains, 3 h
YCR002C = settings: S. cerevisiae GFP-tagged strains, 3 h
YCR005C = settings: S. cerevisiae GFP-tagged strains, 3 h
YDL130W = settings: S. cerevisiae GFP-tagged strains, 3 h
YDL204W = settings: S. cerevisiae GFP-tagged strains, 3 h
YDL205C = settings: S. cerevisiae GFP-tagged strains, 3 h
YDR070C = settings: S. cerevisiae GFP-tagged strains, 3 h
YDR382W = settings: S. cerevisiae GFP-tagged strains, 3 h
YDR399W = settings: S. cerevisiae GFP-tagged strains, 3 h
YDR453C = settings: S. cerevisiae GFP-tagged strains, 3 h
YEL007W = settings: S. cerevisiae GFP-tagged strains, 3 h
YEL060C = settings: S. cerevisiae GFP-tagged strains, 3 h
YEL063C = settings: S. cerevisiae GFP-tagged strains, 3 h
YEL071W = settings: S. cerevisiae GFP-tagged strains, 3 h
YER081W = settings: S. cerevisiae GFP-tagged strains, 3 h
YER117W = settings: S. cerevisiae GFP-tagged strains, 3 h
YER151C = settings: S. cerevisiae GFP-tagged strains, 3 h
YER156C = settings: S. cerevisiae GFP-tagged strains, 3 h
YFR031C-A = settings: S. cerevisiae GFP-tagged strains, 3 h
YFR053C = settings: S. cerevisiae GFP-tagged strains, 3 h
YGL036W = settings: S. cerevisiae GFP-tagged strains, 3 h
YGL062W = settings: S. cerevisiae GFP-tagged strains, 3 h
YGL135W = settings: S. cerevisiae GFP-tagged strains, 3 h
YGL147C = settings: S. cerevisiae GFP-tagged strains, 3 h
YGR019W = settings: S. cerevisiae GFP-tagged strains, 3 h
YGR034W = settings: S. cerevisiae GFP-tagged strains, 3 h
YGR088W = settings: S. cerevisiae GFP-tagged strains, 3 h
YGR121C = settings: S. cerevisiae GFP-tagged strains, 3 h
YHL021C = settings: S. cerevisiae GFP-tagged strains, 3 h
YHR018C = settings: S. cerevisiae GFP-tagged strains, 3 h
YHR087W = settings: S. cerevisiae GFP-tagged strains, 3 h
YHR141C = settings: S. cerevisiae GFP-tagged strains, 3 h
YHR144C = settings: S. cerevisiae GFP-tagged strains, 3 h
YHR203C = settings: S. cerevisiae GFP-tagged strains, 3 h
YIL043C = settings: S. cerevisiae GFP-tagged strains, 3 h
YIL051C = settings: S. cerevisiae GFP-tagged strains, 3 h
YIL052C = settings: S. cerevisiae GFP-tagged strains, 3 h
YIL066C = settings: S. cerevisiae GFP-tagged strains, 3 h
YIL069C = settings: S. cerevisiae GFP-tagged strains, 3 h
YJL056C = settings: S. cerevisiae GFP-tagged strains, 3 h
YJL144W = settings: S. cerevisiae GFP-tagged strains, 3 h
YJR148W = settings: S. cerevisiae GFP-tagged strains, 3 h
YKL086W = settings: S. cerevisiae GFP-tagged strains, 3 h
YKL103C = settings: S. cerevisiae GFP-tagged strains, 3 h
YKL119C = settings: S. cerevisiae GFP-tagged strains, 3 h
YKR039W = settings: S. cerevisiae GFP-tagged strains, 3 h
YKR093W = settings: S. cerevisiae GFP-tagged strains, 3 h
YKR094C = settings: S. cerevisiae GFP-tagged strains, 3 h
YLL026W = settings: S. cerevisiae GFP-tagged strains, 3 h
YLL039C = settings: S. cerevisiae GFP-tagged strains, 3 h
YLR058C = settings: S. cerevisiae GFP-tagged strains, 3 h
YLR109W = settings: S. cerevisiae GFP-tagged strains, 3 h
YLR142W = settings: S. cerevisiae GFP-tagged strains, 3 h
YLR185W = settings: S. cerevisiae GFP-tagged strains, 3 h
YLR237W = settings: S. cerevisiae GFP-tagged strains, 3 h
YLR287C-A = settings: S. cerevisiae GFP-tagged strains, 3 h
YLR367W = settings: S. cerevisiae GFP-tagged strains, 3 h
YML004C = settings: S. cerevisiae GFP-tagged strains, 3 h
YML026C = settings: S. cerevisiae GFP-tagged strains, 3 h
YML034W = settings: S. cerevisiae GFP-tagged strains, 3 h
YML063W = settings: S. cerevisiae GFP-tagged strains, 3 h
YML128C = settings: S. cerevisiae GFP-tagged strains, 3 h
YMR105C = settings: S. cerevisiae GFP-tagged strains, 3 h
YMR120C = settings: S. cerevisiae GFP-tagged strains, 3 h
YMR251W-A = settings: S. cerevisiae GFP-tagged strains, 3 h
YMR307W = settings: S. cerevisiae GFP-tagged strains, 3 h
YNL015W = settings: S. cerevisiae GFP-tagged strains, 3 h
YNL068C = settings: S. cerevisiae GFP-tagged strains, 3 h
YNL112W = settings: S. cerevisiae GFP-tagged strains, 3 h
YNL142W = settings: S. cerevisiae GFP-tagged strains, 3 h
YNL214W = settings: S. cerevisiae GFP-tagged strains, 3 h
YNR001C = settings: S. cerevisiae GFP-tagged strains, 3 h
YOL052C-A = settings: S. cerevisiae GFP-tagged strains, 3 h
YOR038C = settings: S. cerevisiae GFP-tagged strains, 3 h
YOR063W = settings: S. cerevisiae GFP-tagged strains, 3 h
YOR136W = settings: S. cerevisiae GFP-tagged strains, 3 h
YOR173W = settings: S. cerevisiae GFP-tagged strains, 3 h
YOR182C = settings: S. cerevisiae GFP-tagged strains, 3 h
YOR371C = settings: S. cerevisiae GFP-tagged strains, 3 h
YOR375C = settings: S. cerevisiae GFP-tagged strains, 3 h
YPL111W = settings: S. cerevisiae GFP-tagged strains, 3 h
YPL131W = settings: S. cerevisiae GFP-tagged strains, 3 h
YPL150W = settings: S. cerevisiae GFP-tagged strains, 3 h
YPL220W = settings: S. cerevisiae GFP-tagged strains, 3 h
YPL265W = settings: S. cerevisiae GFP-tagged strains, 3 h
YPR132W = settings: S. cerevisiae GFP-tagged strains, 3 h
YPR145W = settings: S. cerevisiae GFP-tagged strains, 3 h
YPR184W = settings: S. cerevisiae GFP-tagged strains, 3 h

General amino acid permease AGP1 (Saccharomyces cerevisiae S288c), sequence (P25376 whole entry, looked up): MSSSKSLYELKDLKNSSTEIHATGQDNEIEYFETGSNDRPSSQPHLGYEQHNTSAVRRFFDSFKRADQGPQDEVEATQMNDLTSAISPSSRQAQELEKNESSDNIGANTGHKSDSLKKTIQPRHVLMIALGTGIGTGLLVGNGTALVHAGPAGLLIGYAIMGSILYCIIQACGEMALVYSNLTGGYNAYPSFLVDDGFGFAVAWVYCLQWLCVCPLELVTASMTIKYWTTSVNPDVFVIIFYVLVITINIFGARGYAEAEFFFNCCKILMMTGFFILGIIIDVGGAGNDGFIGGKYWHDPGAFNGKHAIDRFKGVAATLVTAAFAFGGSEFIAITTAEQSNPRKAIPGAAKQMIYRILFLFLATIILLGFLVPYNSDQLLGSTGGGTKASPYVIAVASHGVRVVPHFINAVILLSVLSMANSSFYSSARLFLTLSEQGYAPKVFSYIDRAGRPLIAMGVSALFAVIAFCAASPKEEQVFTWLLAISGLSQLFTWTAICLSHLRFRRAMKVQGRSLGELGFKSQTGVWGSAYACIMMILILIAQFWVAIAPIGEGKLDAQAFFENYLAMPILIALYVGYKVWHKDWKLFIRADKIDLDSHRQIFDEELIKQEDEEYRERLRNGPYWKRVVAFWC

GFP ratio to DMSO [1]: 1.69
Compound: CNc1nc(N)c([N+](=O)[O-])c(Nc2cccc(F)c2)n1
GFP ratio to DMSO (YAL060W): 2.27
GFP ratio to DMSO (YAL061W): 1.57
GFP ratio to DMSO (YBL087C): 0.567
GFP ratio to DMSO (YBR072W): 1.53
GFP ratio to DMSO (YBR139W): 1.12 (inactive)
GFP ratio to DMSO (YBR208C): 2.34
GFP ratio to DMSO (YBR248C): 1.03 (inactive)
GFP ratio to DMSO (YCL064C): 1.15 (inactive)
GFP ratio to DMSO (YCR002C): 0.939 (inactive)
GFP ratio to DMSO (YCR005C): 4.96
GFP ratio to DMSO (YDL130W): 0.917 (inactive)
GFP ratio to DMSO (YDL204W): 1.33 (inactive)
GFP ratio to DMSO (YDL205C): 0.958 (inactive)
GFP ratio to DMSO (YDR070C): 2.45
GFP ratio to DMSO (YDR382W): 0.981 (inactive)
GFP ratio to DMSO (YDR399W): 0.957 (inactive)
GFP ratio to DMSO (YDR453C): 1.5 (inactive)
GFP ratio to DMSO (YEL007W): 0.993 (inactive)
GFP ratio to DMSO (YEL060C): 1.88
GFP ratio to DMSO (YEL063C): 1.23 (inactive)
GFP ratio to DMSO (YEL071W): 2.83
GFP ratio to DMSO (YER081W): 1.07 (inactive)
GFP ratio to DMSO (YER117W): 0.434
GFP ratio to DMSO (YER151C): 1.03 (inactive)
GFP ratio to DMSO (YER156C): 1.08 (inactive)
GFP ratio to DMSO (YFR031C-A): 0.845 (inactive)
GFP ratio to DMSO (YFR053C): 1.46 (inactive)
GFP ratio to DMSO (YGL036W): 0.845 (inactive)
GFP ratio to DMSO (YGL062W): 2.1
GFP ratio to DMSO (YGL135W): 0.899 (inactive)
GFP ratio to DMSO (YGL147C): 0.799 (inactive)
GFP ratio to DMSO (YGR019W): 1.42 (inactive)
GFP ratio to DMSO (YGR034W): 0.814 (inactive)
GFP ratio to DMSO (YGR088W): 1.71
GFP ratio to DMSO (YGR121C): 1.38 (inactive)
GFP ratio to DMSO (YHL021C): 1.99
GFP ratio to DMSO (YHR018C): 1.14 (inactive)
GFP ratio to DMSO (YHR087W): 1.64
GFP ratio to DMSO (YHR141C): 0.925 (inactive)
GFP ratio to DMSO (YHR144C): 0.778 (inactive)
GFP ratio to DMSO (YHR203C): 0.857 (inactive)
GFP ratio to DMSO (YIL043C): 1.04 (inactive)
GFP ratio to DMSO (YIL051C): 1.3 (inactive)
GFP ratio to DMSO (YIL052C): 0.769 (inactive)
GFP ratio to DMSO (YIL066C): 1.04 (inactive)
GFP ratio to DMSO (YIL069C): 0.764 (inactive)
GFP ratio to DMSO (YJL056C): 0.886 (inactive)
GFP ratio to DMSO (YJL144W): 1.39 (inactive)
GFP ratio to DMSO (YJR148W): 3.13
GFP ratio to DMSO (YKL086W): 1.17 (inactive)
GFP ratio to DMSO (YKL103C): 2.2
GFP ratio to DMSO (YKL119C): 0.959 (inactive)
GFP ratio to DMSO (YKR039W): 4.91
GFP ratio to DMSO (YKR093W): 4.31
GFP ratio to DMSO (YKR094C): 0.898 (inactive)
GFP ratio to DMSO (YLL026W): 1.75
GFP ratio to DMSO (YLL039C): 1.49 (inactive)
GFP ratio to DMSO (YLR058C): 1.02 (inactive)
GFP ratio to DMSO (YLR109W): 1.39 (inactive)
GFP ratio to DMSO (YLR142W): 0.857 (inactive)
GFP ratio to DMSO (YLR185W): 0.893 (inactive)
GFP ratio to DMSO (YLR237W): 0.775 (inactive)
GFP ratio to DMSO (YLR287C-A): 0.753 (inactive)
GFP ratio to DMSO (YLR367W): 0.896 (inactive)
GFP ratio to DMSO (YML004C): 1.28 (inactive)
GFP ratio to DMSO (YML026C): 0.557
GFP ratio to DMSO (YML034W): 0.944 (inactive)
GFP ratio to DMSO (YML063W): 0.897 (inactive)
GFP ratio to DMSO (YML128C): 1.68
GFP ratio to DMSO (YMR105C): 1.72
GFP ratio to DMSO (YMR120C): 0.686 (inactive)
GFP ratio to DMSO (YMR251W-A): 1.64
GFP ratio to DMSO (YMR307W): 0.845 (inactive)
GFP ratio to DMSO (YNL015W): 1.62
GFP ratio to DMSO (YNL068C): 1.09 (inactive)
GFP ratio to DMSO (YNL112W): 0.894 (inactive)
GFP ratio to DMSO (YNL142W): 9.4
GFP ratio to DMSO (YNL214W): 0.945 (inactive)
GFP ratio to DMSO (YNR001C): 1.57
GFP ratio to DMSO (YOL052C-A): 2.48
GFP ratio to DMSO (YOR038C): 1.15 (inactive)
GFP ratio to DMSO (YOR063W): 0.919 (inactive)
GFP ratio to DMSO (YOR136W): 1.43 (inactive)
GFP ratio to DMSO (YOR173W): 1.45 (inactive)
GFP ratio to DMSO (YOR182C): 0.657 (inactive)
GFP ratio to DMSO (YOR371C): 0.944 (inactive)
GFP ratio to DMSO (YOR375C): 1.83
GFP ratio to DMSO (YPL111W): 2.48
GFP ratio to DMSO (YPL131W): 0.93 (inactive)
GFP ratio to DMSO (YPL150W): 0.959 (inactive)
GFP ratio to DMSO (YPL220W): 1.04 (inactive)
GFP ratio to DMSO (YPL265W): 1.93
GFP ratio to DMSO (YPR132W): 0.841 (inactive)
GFP ratio to DMSO (YPR145W): 1.98
GFP ratio to DMSO (YPR184W): 1.61
